ChEMBL document CHEMBL5050844 (2019)

How the values were obtained:
[1] = target: T1, E3 ubiquitin-protein ligase CBL-B (Homo sapiens, UniProt Q13191); experiment: Inhibition of N-terminal Avi-tagged human CBL-B (36 to 427 residues) incubated with 60 nM Src kinase for 1.5 hrs followed by incubation with fluorescently labeled UbcH5B-Ub for 1 hr and measured by TR-FRET assay; type: single protein
[2] = Induction of anti-CD3/CD28 antibodies-stimulated human T cell activation at 1 uM assessed fold increase in IL-2 secretion measured by ELISA assay; type: functional, T cell line
[3] = Induction of anti-CD3/CD28 antibodies-stimulated human T cell activation at 0.3 uM assessed fold increase in IL-2 secretion measured by ELISA assay; type: functional, T cell line
[4] = Induction of anti-CD3 antibodies-stimulated human T cell activation at 1 uM assessed fold increase in IL-2 secretion measured by ELISA assay; type: functional, T cell line; also: reference of the scale not given here
[5] = Induction of anti-CD3/CD28 antibodies-stimulated human T cell activation at 1 uM assessed fold increase in CD25 expression measured by ELISA assay; type: functional, T cell line
[6] = Induction of anti-CD3/CD28 antibodies-stimulated human T cell activation at 0.3 uM assessed fold increase in CD25 expression measured by ELISA assay; type: functional, T cell line
[7] = Induction of anti-CD3 antibodies-stimulated human T cell activation at 1 uM assessed fold increase in CD25 expression measured by ELISA assay; type: functional, T cell line; also: reference of the scale not given here
[8] = Induction of anti-CD3 antibodies-stimulated human CD4+ T cell activation in immunocompetent mouse assessed fold increase in CD25 expression at 135 mg/kg, po administered twice a day; type: functional; also: reference of the scale not given here
[9] = Induction of anti-CD3 antibodies-stimulated human CD8+ T cell activation in immunocompetent mouse assessed fold increase in CD25 expression at 90 mg/kg, po administered twice a day; type: functional; also: reference of the scale not given here
[10] = target: T1, E3 ubiquitin-protein ligase CBL-B; experiment: Inhibition of N-terminal Avi-tagged human CBL-B (36 to 427 residues) incubated with 30 nM Src kinase for 1.5 hrs followed by incubation with fluorescently labeled UbcH5B-Ub for 1 hr and measured by TR-FRET assay
[11] = Induction of anti-CD3/CD28 antibodies-stimulated human T cell activation at 4 uM assessed fold increase in IL-2 secretion measured by ELISA assay; type: functional, T cell line
[12] = Induction of anti-CD3 antibodies-stimulated human T cell activation at 8 uM assessed fold increase in IL-2 secretion measured by ELISA assay; type: functional, T cell line; also: reference of the scale not given here
[13] = Induction of anti-CD3/CD28 antibodies-stimulated human T cell activation at 4 uM assessed fold increase in CD25 expression measured by ELISA assay; type: functional, T cell line
[14] = Induction of anti-CD3 antibodies-stimulated human T cell activation at 8 uM assessed fold increase in CD25 expression measured by ELISA assay; type: functional, T cell line; also: reference of the scale not given here
[15] = Induction of allogenic human T cell activation at 10 uM assessed fold increase in cell proliferation; type: functional, T cell line
[16] = Induction of allogenic human T cell activation at 3 uM assessed fold increase in cell proliferation; type: functional, T cell line
[17] = Induction of anti-CD3 antibodies-stimulated human exhausted T cell activation assessed fold increase in IFN-gamma secretion measured by ELISA assay; type: functional, T cell line; also: reference of the scale not given here
[18] = Induction of anti-CD3 antibodies-stimulated human exhausted T cell activation assessed fold increase in IL-2 secretion measured by ELISA assay; type: functional, T cell line; also: reference of the scale not given here
[19] = Induction of anti-CD3 antibodies-stimulated human exhausted T cell activation assessed fold increase in GM-CSF secretion measured by ELISA assay; type: functional, T cell line; also: reference of the scale not given here
[20] = Induction of anti-CD3/CD28 antibodies-stimulated human anergic T cell activation at 10 uM assessed fold increase in IFN-gamma secretion measured by ELISA assay; type: functional, T cell line
[21] = Induction of anti-CD3/CD28 antibodies-stimulated human anergic T cell activation at 1.11 uM assessed fold increase in IFN-gamma secretion measured by ELISA assay; type: functional, T cell line
[22] = Induction of anti-CD3/CD28 antibodies-stimulated human anergic T cell activation at 0.37 uM assessed fold increase in IFN-gamma secretion measured by ELISA assay; type: functional, T cell line
B cell = experiment: Induction of anti-IgM-stimulated human CD20+ B cell activation at 10 to 1000 uM assessed as increase in CD69 expression measured as mean fluorescence intensity AUC by flow cytometry analysis; type: functional, cell-based; conditions: dose 10-1000 µM
[23] = Induction of activation of human CD56+ CD3- NK cells co-cultured with human K562 cells in 1:1 ratio and assessed as increase in IFN-gamma secretion at 10 uM measured by ELISA assay; type: functional, Natural killer cell
[24] = Induction of activation of human CD56+ CD3- NK cells co-cultured with human K562 cells in 1:1 ratio and assessed as increase in TNF-alpha secretion at 10 uM measured by ELISA assay; type: functional, Natural killer cell
[25] = Induction of activation of human CD56+ CD3- NK cells co-cultured with human K562 cells in 1:1 ratio and assessed as increase in IFN-gamma secretion at 2.5 uM measured by ELISA assay; type: functional, Natural killer cell
[26] = Induction of activation of human CD56+ CD3- NK cells co-cultured with human K562 cells in 1:1 ratio and assessed as increase in IFN-gamma secretion at 0.625 uM measured by ELISA assay; type: functional, Natural killer cell
[27] = Induction of activation of human CD56+ CD3- NK cells co-cultured with human K562 cells in 1:1 ratio and assessed as increase in TNF-alpha secretion at 2.5 uM measured by ELISA assay; type: functional, Natural killer cell
[28] = Induction of activation of human CD56+ CD3- NK cells co-cultured with human K562 cells in 1:1 ratio and assessed as increase in TNF-alpha secretion at 0.625 uM measured by ELISA assay; type: functional, Natural killer cell
[29] = target: T1, E3 ubiquitin-protein ligase CBL-B; experiment: Binding affinity towards N-terminal biotinylated Avi-tagged human CBL-B (36 to 427 residues) measured by surface plasmon resonance assay

T1 sequence (Q13191 whole entry, the tested form may be a part): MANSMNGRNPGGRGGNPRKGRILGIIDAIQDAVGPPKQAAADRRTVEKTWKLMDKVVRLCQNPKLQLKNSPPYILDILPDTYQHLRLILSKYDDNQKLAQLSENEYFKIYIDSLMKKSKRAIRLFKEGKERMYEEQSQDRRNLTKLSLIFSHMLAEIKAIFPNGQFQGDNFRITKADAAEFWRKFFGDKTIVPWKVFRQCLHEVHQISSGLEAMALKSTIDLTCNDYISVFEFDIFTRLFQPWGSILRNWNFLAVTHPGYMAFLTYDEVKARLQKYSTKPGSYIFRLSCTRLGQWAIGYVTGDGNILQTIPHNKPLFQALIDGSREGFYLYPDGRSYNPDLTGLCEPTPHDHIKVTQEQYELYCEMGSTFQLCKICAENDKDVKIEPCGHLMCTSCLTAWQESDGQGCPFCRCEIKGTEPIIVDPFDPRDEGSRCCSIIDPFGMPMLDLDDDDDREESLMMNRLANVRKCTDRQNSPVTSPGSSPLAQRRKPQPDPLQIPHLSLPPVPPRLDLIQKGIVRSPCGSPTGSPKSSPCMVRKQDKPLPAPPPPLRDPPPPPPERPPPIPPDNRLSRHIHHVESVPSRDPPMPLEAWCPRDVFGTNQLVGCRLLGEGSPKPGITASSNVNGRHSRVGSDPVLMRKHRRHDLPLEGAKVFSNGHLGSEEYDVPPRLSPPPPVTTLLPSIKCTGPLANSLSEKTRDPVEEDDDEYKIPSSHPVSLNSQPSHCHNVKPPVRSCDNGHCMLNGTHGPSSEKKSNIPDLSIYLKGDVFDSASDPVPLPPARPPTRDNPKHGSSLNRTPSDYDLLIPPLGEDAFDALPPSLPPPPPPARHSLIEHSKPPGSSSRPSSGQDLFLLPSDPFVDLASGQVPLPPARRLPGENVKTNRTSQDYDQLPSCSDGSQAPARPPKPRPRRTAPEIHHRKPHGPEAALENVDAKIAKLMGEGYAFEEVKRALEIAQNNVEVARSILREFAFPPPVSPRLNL

Row | IC50 [1] | IC50 [10] | SMILES | fold change (FC) [2] | fold change (FC) [3] | fold change (FC) [4] | fold change (FC) [5] | fold change (FC) [6] | fold change (FC) [7] | fold change (FC) [8] | fold change (FC) [9] | other results
1 | – | > 10000 nM | Cc1ccc2cc(C(=O)Nc3cccc(C(C)Sc4nncn4C)c3)cnc2c1 (stereo not given) | – | – | – | – | – | – | – | – | –
2 | < 100 nM | – | Cn1cnnc1CC1(c2cccc(N3Cc4c(cc(CN5CCC(F)CC5)cc4C(F)(F)F)C3=O)c2)COC1 | – | – | – | – | – | – | 1.51 | 1 | –
3 | < 100 nM | – | Cn1cnnc1C(F)(F)[C@](C)(F)c1cccc(N2Cc3c(cc(N4CCNCC4)cc3C(F)(F)F)C2=O)c1 | >=7.5 | 2.51 | >=0.201 | 1.51 | 1.31 | >=1.001 | – | – | fold change (FC) [11]: >=7.5; fold change (FC) [12]: 0.051; fold change (FC) [13]: 1.51; fold change (FC) [14]: 0.801; fold change (FC) [15]: <=2; fold change (FC) [16]: <=2; fold change (FC) [17]: 1.41; fold change (FC) [18]: >3.01; fold change (FC) [19]: <=1.4; fold change (FC) [20]: 2.51; fold change (FC) [21]: 2.51; fold change (FC) [22]: <=2.5; AUC (B cell): 0.5; fold change (FC) [23]: 2.01; fold change (FC) [24]: 2.01; fold change (FC) [25]: 2.01; fold change (FC) [26]: 1.01; fold change (FC) [27]: 2.01; fold change (FC) [28]: 2.01

More lines, now with the values behind:

Row | SMILES | IC50 [1] | IC50 [10] | fold change (FC) [2] | fold change (FC) [3] | fold change (FC) [4] | fold change (FC) [5] | fold change (FC) [6] | fold change (FC) [7] | fold change (FC) [8] | fold change (FC) [9] | other results
4 | Cn1cnnc1CC1(c2cccc(N3Cc4c(cc(CN5CCC[C@H](F)C5)cc4C(F)(F)F)C3=O)c2)COC1 | < 100 nM | – | >=7.5 | >=7.5 | >=0.201 | 1.31 | 1.31 | >=1.001 | 1 | 1 | –
5 | CC(Sc1nncn1C)c1cccc(NC(=O)c2ccc3cccnc3c2)c1 (stereo not given) | – | > 10000 nM | – | – | – | – | – | – | – | – | –
6 | CC(Sc1nncn1C)c1cccc(NC(=O)c2ccncn2)c1 (stereo not given) | – | > 10000 nM | – | – | – | – | – | – | – | – | –
7 | C[C@H](c1cc2c(c(C(F)(F)F)c1)CN(c1cccc(C3(Cc4nncn4C)COC3)c1)C2=O)N1CCC(C)(F)CC1 | < 100 nM | – | >=7.5 | >=7.5 | >=0.201 | >=1.76 | >=1.76 | >=1.001 | >2.5 | 1 | –
8 | Cn1cnnc1[C@@H](F)C1(c2cccc(N3Cc4c(cc(CN5CCC(F)CC5)cc4C(F)(F)F)C3=O)c2)COC1 | < 100 nM | – | >=7.5 | 5 | >=0.201 | 1.51 | 1.51 | >=1.001 | 2.01 | 1 | Kd [29]: < 100 nM
9 | C[C@@H](c1cc2c(c(C(F)(F)F)c1)CN(c1cccc(C3(Cc4nncn4C)COC3)c1)C2=O)N1CCC(C)(F)CC1 | < 100 nM | – | >=7.5 | >=7.5 | >=0.201 | >=1.76 | >=1.76 | >=1.001 | 1 | 1 | Kd [29]: < 100 nM
